Laboratory results from patent US5750136A, “Bioadhesive composition and patch” (priority 1995, dated 1998).

C[C@H]1O[C@@H](O[C@H]2[C@@H](O)C[C@H](O[C@H]3[C@@H](O)C[C@H](O[C@H]4CC[C@@]5(C)[C@H](CC[C@@H]6[C@@H]5C[C@@H](O)[C@]5(C)[C@@H](C7=CC(=O)OC7)CC[C@]65O)C4)O[C@@H]3C)O[C@@H]2C)C[C@H](O)[C@@H]1O [digoxin]
bioavailability of digoxin is substantial for a period (from patches of Examples 2-4): at least 24 h
delivery from bioadhesive compositions (in words, Table I): delivered in a sustained fashion
